Where two headings read alike, the source gives them in different places. Each block holds one molecule with its values, some of them ahead of it. Where a SMILES comes first, the peptide text is derived from it.
Key:
[1] = Fluorescence titration, VEPEP-9/SHM binding
Method: (§1) Fluorescence experiments were performed on a PTI spectrofluorimeter at 25° C. in a NaCl 154 mM buffer. Intrinsic Trp-fluorescence of VEPEP-9 was excited at 290 nm and emission spectrum was recorded between 310 and 400 nm, with a spectral band-pass of 2 and 8 nm for excitation and emission, respectively. FITC- or CY5-fluorescence of labelled-peptide or Oligonucleotide were excited at 492 nm and emission recorded between 500 and 580 nm. For VEPEP-9/peptide interaction, 0.5 μM of FITC-labelled peptide was titrated by increasing concentrations of VEPEP-9. For VEPEP-9/oligonucleotide interaction, 200 nM of FITC or CY5-labelled oligodeoxynucleotide (ODN) was titrated by increasing concentrations of VEPEP-9. All measurements were corrected for the dilution and curve fitting were performed by using Grafit software (Erithacus).
Binding of small molecule cargoes has been investigated in detailed depending on the nature of the SHM. Several hydrophobic molecules have been used (Daunomycin, Paclitaxel, doxorubicin, porphyrin), as well as charged molecules (nucleotide, nucleoside and fluorescent dyes).

siRNA = assay: Fluorescence titration, VEPEP-9/cargo binding; conditions: cargo siRNA
Method: as §1
(§2) VEPEP-9 peptide form stable complexes with peptides and ODN. The binding of cargos to VEPEP-9 was monitored by fluorescence spectroscopy using the both intrinsic Trp group of VEPEP-9 (3 to 5 Trp-residues) and extrinsic fluorescently labelled cargoes (using Cy3, Cy5 or FITC). Curve fitting reveal that VEPEP-9 strongly binds the different cargoes with dissociation constant in the nanomolar range (Tables 1 and 2 and FIG. 2).
(§3) VEPEP-9 peptides form stable particles with different cargoes including peptide, siRNA, PNA and small aromatic (FIG. 2). The dissociation constant for peptide, siRNA, PNA and small hydrophobic molecule ranges between 10-100 nM, 5-50 nM, 5-50 nM and 0.02 to 0.2 μM, respectively, depending on the nature of the dyes and of the cargoes.

Peptide (C4) = assay: Fluorescence titration, VEPEP-9/cargo binding; conditions: cargo peptide (C4)
Method: as §1, §2, §3

[2] = Fluorescence titration, VEPEP-9/cargo binding; conditions: cargo SHM
Method: as §1, §2, §3

PNA (15 mer -PNA) = assay: Fluorescence titration, VEPEP-9/cargo binding; conditions: cargo PNA (15 mer)
Method: as §1, §2, §3

SKB3 = assay: Inhibition of cancer cell proliferation by delivered drugs; type: cell-based
MCF7 [3] = assay: as above; type: cell-based; conditions: Homo sapiens
[4] = test system: PC3, A549, or SCK-3-HEK2-xenografted mice; assay: Tumour growth and cyclin B1 mRNA, siRNA controls; type: in vivo
Method: (§4) For siRNA treatment: Two to three weeks after tumour implant, when tumour size reached about 100 mm^3, animals were treated by intratumoral or intravenous injection, every 3 days, with a solution of 0.1 ml of either free Cyc-B1 siRNA (50 or 100 μg), control siRNA Cyc-B3 or Cyc-B1 siRNA (1, 5, 10 μg) complexed with NANOPEP-9 at a 1/20 molar ratio.
Athymic female nude mice (6-8 weeks of age) were subcutaneously inoculated into the flank with 1×10^6 PC3 (prostate cancer), A549 (lung cancer) or SCK-3-HEK2 (ovarian cancer) cells in 100 μl PBS. Two to three weeks after tumour implant, when tumour size reached about 100 mm^3, animals were treated by intratumoral or intravenous injection, every 3 days, with a solution of 0.1 ml of either free Cyc-B1 siRNA (50 or 100 μg), control siRNA Cyc-B3 or Cyc-B1 siRNA (5, 10 μg) complexed with NANOPEP-9b or NANOPEP-9e particles. The “core” shell of the particles was formed using VEVEP-9b or VEPEP-9e peptide at a molar ratio of 20/1 with a siRNA targeting cycline B1. siRNA stock solutions are in 50 mM Tris, 0.5 mM EDTA buffer or in RNase free water. VEPEP-9 peptides were solubilised in water and stock solution of peptide was sonicated for 10 min in a water bath before complex formation. Then VEPEP-9/siRNA complexes were formed by adding siRNA into the peptide solution and incubating at 37° C. for 20-30 minutes to allow the carrier peptide/siRNA complexes to form. NANOPEP-9 particles contain a VEPEP-9/siRNA “core shell” surrounded by additional VEPEP-9 at a 1/20 molar ratio.
The potential of NANOPEP-9b or NANOPEP-9e to deliver cyclin B1 siRNA in vivo was evaluated on PC3, A549, or SCK-3-HEK2-xenografted mice (FIGS. 13A-13B). The effect of local intratumoral administration of NANOPEP-9/siRNA particles (molar ratio 20/1) on the growth of established subcutaneous tumours was evaluated. At day 50, tumor sizes in the control cohort, injected with PBS increased by about 3 to 5 fold. […] At day 48, it was validated that the Cyc-B1 siRNA mediated inhibition of tumour growth was directly associated with a decrease in the level of cyclin B1 mRNA.

cultured cells = assay: Cell cycle progression / cyclin B1 levels in cultured cells; type: cell-based; conditions: for concentration at which 4 N accumulation was optimally obtained: VEPEP-9 mediated delivery
MCF7 [5] = conditions: read-out: IC50, accumulation of cells with a 4 N content (G2 arrest), Cyclin B1 siRNA delivered with VEPEP-9
HT29 tumor = assay: Tumour size, intravenous Cyc B1 siRNA in NANOPEP-9; type: in vivo, mice; conditions: intravenous every three days, day 50
Method: NANOPEP-9b and NANOPEP-9e particles were used for systemic intravenous administration. Five micrograms (0.25 mg/kg) and 10 μg (0.5 mg/kg) of Cyc B1 siRNA in NANOPEP-9b and NANOPEP-9e particles were injected intravenously every three days into mice bearing xenografted tumors.

[6] = test system: non-transformed HS68 fibroblasts; assay: Cell proliferation after VEPEP-9 mediated delivery; type: cell-based, Human
Method: (§5) Adherent HS68 fibroblasts, HeLa, PC3, MCF-7, SCK3-Her2, PBMC cell lines (from American Type Culture Collection (ATCC)) were cultured in Dulbecco's Modified Eagle's Medium supplemented with 2 mM glutamine, 1% antibiotics (streptomycin 10,000 μg/ml, penicillin, 10,000 IU/ml) and 10% (w/v) foetal calf serum (FCS), at 37° C. in a humidified atmosphere containing 5% CO2. Stock solutions of VEPEP-9/peptide particles were prepared by complexing 1 μM peptide with VEPEP-9 peptides at a molar ratio of 1/20 for 30 min at 37° C. Lower concentrations of VEPEP-9-carrier/peptide (from 500 nM to 1 μM) were obtained by serial dilution of the stock complexes in PBS, in order to preserve the same VEPEP-9-carrier/peptide ratio. Stock solutions of VEPEP-9/siRNA particles were prepared by complexing 100 nM siRNA with VEPEP-9 peptides at a molar ratio of 1/20 for 30 min at 37° C. Lower concentrations of VEPEP-9/siRNA (from 20 nM to 0.125 nM) were obtained by serial dilution of the stock complexes in PBS, in order to preserve the same VEPEP-9/siRNA ratio. […] For cdk2 derived peptides, cell proliferation was monitored after 24 and 48 hrs. For siRNA targeting Cyclin B1, Cyclin B1 mRNA level was determined 24 hrs following transduction, using Quantigen (Pommies Inc.). […]

HEK-2 = assay: G2 arrest (accumulation of cells with 4 N content); type: cell-based; conditions: Cyclin B1 siRNA delivered with VEPEP-9
[7] = test system: Hela, MCF7, HEK-2 and U2OS cells; assay: Cell proliferation after VEPEP-9 mediated delivery; type: cell-based
Method: as §5

MCF7 [8] = conditions: read-out: IC50, block of proliferation, siRNA delivered with VEPEP-9b and VEPEP-9e
Method: (§6) Adherent HS68 fibroblasts, HeLa, PC3, MCF-7, SCK3-Her2, PBMC cell lines (from American Type Culture Collection (ATCC)) were cultured in Dulbecco's Modified Eagle's Medium supplemented with 2 mM glutamine, 1% antibiotics (streptomycin 10,000 μg/ml, penicillin, 10,000 IU/ml) and 10% (w/v) foetal calf serum (FCS), at 37° C. in a humidified atmosphere containing 5% CO2. […] Stock solutions of VEPEP-9/siRNA particles were prepared by complexing 100 nM siRNA with VEPEP-9 peptides at a molar ratio of 1/20 for 30 min at 37° C. Lower concentrations of VEPEP-9/siRNA (from 20 nM to 0.125 nM) were obtained by serial dilution of the stock complexes in PBS, in order to preserve the same VEPEP-9/siRNA ratio. 150,000 cells seeded in a 35 mm dish the day prior transfection, were grown to 60% confluence and overlaid with 200 μl of preformed complexes, incubated for 3-5 min, then 400 μl of DMEM were added. After 30 min. incubation at 37° C., 1 ml of fresh DMEM containing 16% foetal calf serum (FCS) was added in order to reach a final FCS concentration of 10%, without removing the overlay of VEPEP-9/cargo complexes. Cells were returned to the incubator for 24 hrs. For cdk2 derived peptides, cell proliferation was monitored after 24 and 48 hrs. For siRNA targeting Cyclin B1, Cyclin B1 mRNA level was determined 24 hrs following transduction, using Quantigen (Pommies Inc.). […]

PC3 tumor = assay: Tumour size, intravenous Cyc B1 siRNA in NANOPEP-9; type: in vivo, mice; conditions: intravenous every three days, day 50
Method: as §4
Athymic female nude mice (6-8 weeks of age) were subcutaneously inoculated into the flank with 1×10^6 PC3 (prostate cancer), A549 (lung cancer) or SCK-3-HEK2 (ovarian cancer) cells in 100 μl PBS. Two to three weeks after tumour implant, when tumour size reached about 100 mm^3, animals were treated by intratumoral or intravenous injection, every 3 days, with a solution of 0.1 ml of either free Cyc-B1 siRNA (50 or 100 μg), control siRNA Cyc-B3 or Cyc-B1 siRNA (5, 10 μg) complexed with NANOPEP-9b or NANOPEP-9e particles. The “core” shell of the particles was formed using VEVEP-9b or VEPEP-9e peptide at a molar ratio of 20/1 with a siRNA targeting cycline B1. siRNA stock solutions are in 50 mM Tris, 0.5 mM EDTA buffer or in RNase free water. VEPEP-9 peptides were solubilised in water and stock solution of peptide was sonicated for 10 min in a water bath before complex formation. […]

Hela [9] = conditions: read-out: IC50, block of proliferation, siRNA delivered with VEPEP-9b and VEPEP-9e
Method: as §6

Hela [10] = conditions: read-out: IC50, accumulation of cells with a 4 N content (G2 arrest), Cyclin B1 siRNA delivered with VEPEP-9
[11] = drug complexed with VEPEP-9a at molar ratio 1/20, read-out: VEPEP-9a IC50
[12] = drug complexed with VEPEP-9b at molar ratio 1/20, read-out: VEPEP-9b IC50
[13] = drug complexed with VEPEP-9f at molar ratio 1/20, read-out: VEPEP-9f IC50
[14] = drug complexed with VEPEP-9d at molar ratio 1/20, read-out: VEPEP-9d IC50
[15] = free drug, read-out: Free drug IC50

Molecule: CC(=O)O[C@H]1C(=O)[C@@]2(C)[C@H]([C@H](OC(=O)c3ccccc3)[C@]3(O)C[C@H](OC(=O)[C@H](O)[C@@H](NC(=O)c4ccccc4)c4ccccc4)C(C)=C1C3(C)C)[C@]1(OC(C)=O)CO[C@@H]1C[C@@H]2O [Taxol, taxol]
- IC50 (SKB3; [11]): 700 nM
- IC50 (SKB3; [12]): 650 nM
- IC50 (SKB3; [13]): 900 nM
- IC50 (SKB3; [14]): 700 nM
- IC50 (SKB3; [15]): 10000 nM
- IC50 (MCF7 [3]; [11]): 800 nM
- IC50 (MCF7 [3]; [12]): 120 nM
- IC50 (MCF7 [3]; [13]): 800 nM
- IC50 (MCF7 [3]; [14]): 500 nM
- IC50 (MCF7 [3]; [15]): 7000 nM

Molecule: Cyc-B3: mismatch cyclin B1 siRNA harbouring two mutations; sense 5′GGUGAAGAUCAGCAUGGCATT3′ (antisense UGCCAUGUCGAUCUUCACCTT; chemistry not given here)
- inhibition of tumour growth ([4]; complexed with NANOPEP-9e, 0.5 mg/kg): unable to inhibit tumour growth
- effect on cyclin B1 levels and cell cycle progression (cultured cells; 200 nM, complexed with VEPEP-9 at a 20/1 ratio): no effect

Molecule: siRNA: siRNA targeting Cyclin B1; sense 5′GGCGAAGAUCAACAUGGCATT3′, antisense 5′UGCCAUGUUGAUCUUCGCCTT3′ (chemistry not given here)
- effect on tumour growth ([4]; 100 μg naked siRNA (intratumoral or intravenous) or carrier alone): no significant effect
- level of cyclin B1 mRNA in tumour ([4]; day 48): decrease
- IC50 (MCF7 [5]): 1.9 ± 0.9 nM
- inhibition (reduction in tumor size) (HT29 tumor; 5 μg siRNA): 35%
- inhibition (reduction in tumor size) (HT29 tumor; 10 μg siRNA): 70%
- reduction of proliferation [6]: 10%
- IC50 (HEK-2): 1.2 ± 0.6 nM
- concentration sufficient to block proliferation [7]: 20 nM
- IC50 (MCF7 [8]): 1.6 ± 0.5 nM
- inhibition (reduction in tumor size) (PC3 tumor; 5 μg siRNA in NANOPEP-9b and NANOPEP-9e particles): 65%
- inhibition (reduction in tumor size) (PC3 tumor; 10 μg siRNA in NANOPEP-9b and NANOPEP-9e particles): 90%
- concentration at which 4 N accumulation was optimally obtained (cultured cells): 20 nM
- IC50 (Hela [9]): 3.1 ± 0.2 nM
- IC50 (Hela [10]): 2.4 ± 0.8 nM

Molecule: CSCC[C@H](NC(=O)[C@H](CCCNC(=N)N)NC(=O)[C@@H](NC(=O)[C@H](CCC(N)=O)NC(=O)[C@H](CCCCN)NC(=O)[C@@H](N)CCCCN)C(C)C)C(=O)N[C@@H](C)C(=O)N[C@@H](Cc1c[nH]cn1)C(=O)N[C@@H](CC(C)C)C(=O)N[C@H](C(=O)N[C@@H](CC(C)C)C(=O)N[C@H](C(=O)O)[C@@H](C)O)C(C)C [C4, KKQVRMAHLVLT] (H-KKQVRMAHLVLT-OH; N-terminus and C-terminus assumed)
- reduction of proliferation [6]: 10%
- concentration sufficient to block proliferation [7]: 200 nM
- concentration at which 4 N accumulation was optimally obtained (cultured cells): 200 nM

Further lines, with some results ahead:

- Binding ([1]; cargo AZT): yes
- Kd ([1]; cargo AZT): 20 nM
- Binding ([1]; cargo Doxorubicin): yes
- Kd ([1]; cargo Doxorubicin): 90 nM
- Binding ([1]; cargo FAM-guanosine): yes
- Kd ([1]; cargo FAM-guanosine): 400 nM
- Binding ([1]; cargo porphyrin): yes
- Kd ([1]; cargo porphyrin): 250 nM
- Binding (siRNA): yes
- Kd (siRNA): > 200 nM
- Binding (Peptide (C4)): yes
- Binding [2]: Yes
- Kd [2]: 20 to 100 nM
- Binding (PNA (15 mer -PNA)): Yes
- Kd (PNA (15 mer -PNA)): > 50 nM
Molecule: X1WWRWWASWARSWWR [VEPEP-9d, X1 is beta-A or S]

- Binding ([1]; cargo AZT): yes
- Kd ([1]; cargo AZT): 90 nM
- Binding ([1]; cargo Doxorubicin): yes
- Kd ([1]; cargo Doxorubicin): 50 nM
- Binding ([1]; cargo FAM-guanosine): yes
- Kd ([1]; cargo FAM-guanosine): 1100 nM
- Binding ([1]; cargo porphyrin): yes
- Kd ([1]; cargo porphyrin): 200 nM
- Binding (siRNA): yes
- Kd (siRNA): 5 to 50 nM
- Binding (Peptide (C4)): yes
- Binding [2]: Yes
- Kd [2]: 20 to 100 nM
- Binding (PNA (15 mer -PNA)): Yes
- Kd (PNA (15 mer -PNA)): 5 to 50 nM
Molecule: X1WWGSWATPRRRWWR [VEPEP-9e, X1 is beta-A or S]
- effect on cyclin B1 levels and cell cycle progression (cultured cells; carrier alone (100 μM)): no effect

From patent US10421784B2, “Cell penetrating peptides for intracellular delivery of molecules” (AADIGEN, LLC, priority 2012, dated 2019)
